Reference: patent US10011585B2, “Factor XIa inhibitors” (Merck Sharp & Dohme Corp., priority 2014, dated 2018)
Like-named read-outs stand apart in the source and are kept apart here.

What was measured:
human Factor XIa = biological target: T1, human Factor XIa (Homo sapiens, UniProt P03951); assay: Factor XIa Assay; format: biochemical; conditions: read-out: F11a IC50
T1 construct: purified human Factor XIa; purchased Sekisui Diagnostics
Procedure: The effectiveness of a compound of the present invention as an inhibitor of Coagulation Factor XIa can be determined using a relevant purified serine protease, and an appropriate synthetic substrate. The rate of hydrolysis of the chromogenic or fluorogenic substrate by the relevant serine protease was measured both in the absence and presence of compounds of the present invention. Assays were conducted at room temperature or at 37° C. […] A decrease in the rate of fluorescence change in the presence of inhibitor is indicative of enzyme inhibition. Such methods are known to one skilled in the art. […]
Factor XIa determinations were made in 50 mM HEPES buffer at pH 7.4 containing 150 mM NaCl, 5 mM CaCl2, and 0.1% PEG 8000 (polyethylene glycol; JT Baker or Fisher Scientific). Determinations were made using purified human Factor XIa at a final concentration of 40 pM (Sekisui Diagnostics) and the synthetic substrate, Z-Gly-Pro-Arg-AFC, TFA salt (Sigma #C0980) at a concentration of 100 μM.
Times required to achieve equilibration between enzyme and inhibitor were determined in control experiments. Initial velocities of product formation in the absence (Vo) or presence of inhibitor (Vi) were measured. Assuming competitive inhibition, and that unity is negligible compared Km/[S], [I]/e, and [I]/e (where [S], [I], and e respectively represent the total concentrations, of substrate, inhibitor and enzyme), the equilibrium constant (Ki) for dissociation of the inhibitor from the enzyme can be obtained from the dependence of Vo/Vi on [I] shown in the following equation.

Human plasma kallikrein = biological target: T2, Human plasma kallikrein (Homo sapiens, UniProt P03952); assay: Kallikrein Assay; format: biochemical; conditions: Plasma Kallekrein IC50, read-out: PK IC50
T2 construct: yields a heavy chain (371 amino acids) and a light chain (248 amino acids); purchased Enzyme Research Laboratories
Procedure: The effectiveness of a compound of the present invention as an inhibitor of Kallikrein can be determined using a relevant purified serine protease, and an appropriate synthetic substrate. The rate of hydrolysis of the chromogenic or fluorogenic substrate by the relevant serine protease was measured both in the absence and presence of compounds of the present invention. Assays were conducted at room temperature or at 37° C. […] A decrease in the rate of fluorescence change in the presence of inhibitor is indicative of enzyme inhibition. Such methods are known to one skilled in the art. The results of this assay are expressed as the inhibitory constant, Ki.
Kallikrein determinations were made in 50 mM HEPES buffer at pH 7.4 containing 150 mM NaCl, 5 mM CaCl2, and 0.1% PEG 8000 (polyethylene glycol; Fisher Scientific). Determinations were made using purified Human plasma kallikrein at a final concentration of 0.5 nM (Enzyme Research Laboratories) and the synthetic substrate, Acetyl-K—P—R-AFC (Sigma # C6608) at a concentration of […].
Times required to achieve equilibration between enzyme and inhibitor were determined in control experiments. The reactions were performed under linear progress curve conditions and fluorescence increase measured at 405 Ex/510 Em nm. […] IC50 was determined by inflection point from a four parameter logistic curve fit. Ki was calculated using the Cheng Prusoff equation, Ki=IC50/(1+([S]/Km)).

T1 sequence (P03951 388-625 limits assumed): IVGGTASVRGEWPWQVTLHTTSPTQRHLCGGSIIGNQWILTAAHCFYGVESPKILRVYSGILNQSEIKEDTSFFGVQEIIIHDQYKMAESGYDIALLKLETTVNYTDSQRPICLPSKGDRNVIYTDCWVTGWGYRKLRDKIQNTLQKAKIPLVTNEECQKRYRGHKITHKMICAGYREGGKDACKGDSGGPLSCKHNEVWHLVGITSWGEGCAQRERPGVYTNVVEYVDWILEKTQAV
T1 sequence (P03951 19-387 partner limits assumed): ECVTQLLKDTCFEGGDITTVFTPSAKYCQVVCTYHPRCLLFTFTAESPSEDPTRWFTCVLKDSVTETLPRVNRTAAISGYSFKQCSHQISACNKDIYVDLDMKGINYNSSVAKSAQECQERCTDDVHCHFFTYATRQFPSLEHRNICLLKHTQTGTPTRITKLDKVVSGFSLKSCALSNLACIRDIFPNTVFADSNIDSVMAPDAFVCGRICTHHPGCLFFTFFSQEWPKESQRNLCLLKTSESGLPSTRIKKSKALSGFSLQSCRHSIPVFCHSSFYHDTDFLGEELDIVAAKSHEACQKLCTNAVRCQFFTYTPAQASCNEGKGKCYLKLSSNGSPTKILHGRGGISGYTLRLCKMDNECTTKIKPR
T2 sequence (P03952 391-638 limits assumed): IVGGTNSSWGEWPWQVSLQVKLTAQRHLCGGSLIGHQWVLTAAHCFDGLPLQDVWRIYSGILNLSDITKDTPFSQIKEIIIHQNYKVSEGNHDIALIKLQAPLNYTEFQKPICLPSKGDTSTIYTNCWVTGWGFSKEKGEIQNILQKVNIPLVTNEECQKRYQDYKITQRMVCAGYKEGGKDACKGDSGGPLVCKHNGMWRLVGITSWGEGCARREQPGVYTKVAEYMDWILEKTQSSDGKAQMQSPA
T2 sequence (P03952 20-390 partner limits assumed): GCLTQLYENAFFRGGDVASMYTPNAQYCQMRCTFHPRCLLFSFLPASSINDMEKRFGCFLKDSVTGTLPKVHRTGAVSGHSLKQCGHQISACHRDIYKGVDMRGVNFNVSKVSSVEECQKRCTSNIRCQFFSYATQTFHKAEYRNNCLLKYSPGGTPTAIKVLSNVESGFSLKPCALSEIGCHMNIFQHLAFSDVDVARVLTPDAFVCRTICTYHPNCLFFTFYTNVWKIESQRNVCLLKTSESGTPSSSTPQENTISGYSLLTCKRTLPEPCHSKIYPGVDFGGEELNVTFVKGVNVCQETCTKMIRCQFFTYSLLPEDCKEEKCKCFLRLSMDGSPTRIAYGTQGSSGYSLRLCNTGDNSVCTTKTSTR

Row | Compound | IC50 (human Factor XIa; Examples 1-19 table) | IC50 (Human plasma kallikrein; Examples 1-19 table) | IC50 (human Factor XIa; Examples 20-28 table) | IC50 (Human plasma kallikrein; Examples 20-28 table)
1 | O=C(O)c1ccc2[nH]c(C(Cc3ccccc3)c3ccc(-c4cc(Cl)ccc4-n4cnnn4)c[n+]3[O-])nc2c1 (racemic) [Example 4, 2-(1-(5-Carboxy-1H-benzo[d]imidazol-2-yl)-2-phenylethyl)-5-(5-chloro-2-(1H-tetrazol-1-yl)phenyl)pyridine 1-oxide] | 0.45 nM | 52.7 nM | – | –
2 | O=C(O)c1ccc2[nH]c(C(Cc3ccccc3)c3ccc(-c4c(F)ccc(Cl)c4F)c[n+]3[O-])nc2c1 (stereo in doubt) [Example 2, (S)-2-(1-(5-Carboxy-1H-benzo[d]imidazol-2-yl)-2-phenylethyl)-5-(3-chloro-2,6-difluorophenyl)pyridine 1-oxide] | 46.2 nM | 182 nM | – | –
3 | O=C(O)c1ccc2[nH]c([C@H](Cc3ccccc3)c3ccc(-c4cc(Cl)ccc4-n4cnnn4)c[n+]3[O-])nc2c1 [Example 6, (R)-2-(1-(5-Carboxy-1H-benzo[d]imidazol-2-yl)-2-phenylethyl)-5-(5-chloro-2-(1H-tetrazol-1-yl)phenyl)pyridine 1-oxide] | 0.51 nM | 28.4 nM | – | –
4 | [O-][n+]1cc(-c2cc(Cl)ccc2-n2cnnn2)ccc1C(Cc1ccccc1)c1nc2cc(F)ccc2[nH]1 (stereo in doubt) [Example 9, (R)-5-(5-chloro-2-(1H-tetrazol-1-yl)phenyl)-2-(1-(5-fluoro-1H-benzo[d]imidazol-2-yl)-2-phenylethyl)pyridine 1-oxide] | 3.28 nM | 295 nM | – | –
5 | O=C(O)c1ccc2[nH]c(C(Cc3ccccc3)c3ccc(-c4c(F)ccc(Cl)c4F)c[n+]3[O-])nc2c1 (stereo in doubt) [Example 3, (R)-2-(1-(5-Carboxy-1H-benzo[d]imidazol-2-yl)-2-phenylethyl)-5-(3-chloro-2,6-difluorophenyl)pyridine 1-oxide] | 138 nM | 182 nM | – | –
6 | [O-][n+]1cc(-c2cc(Cl)ccc2-n2cnnn2)ccc1C(Cc1ccccc1)c1nc2cc(F)ccc2[nH]1 (stereo in doubt) [Example 8, (S)-5-(5-chloro-2-(1H-tetrazol-1-yl)phenyl)-2-(1-(5-fluoro-1H-benzo[d]imidazol-2-yl)-2-phenylethyl)pyridine 1-oxide] | 1.33 nM | 124 nM | – | –
7 | O=C(O)c1ccc2[nH]c(C(Cc3ccccc3)c3ccc(-c4c(F)ccc(Cl)c4F)c[n+]3[O-])nc2c1 (racemic) [Example 1, 2-(1-(5-Carboxy-1H-benzo[d]imidazol-2-yl)-2-phenylethyl)-5-(3-chloro-2,6-difluorophenyl)pyridine 1-oxide] | 89.2 nM | 293 nM | – | –
8 | O=C(O)c1ccc2[nH]c([C@@H](Cc3ccc(F)cc3)c3ccc(-c4c(F)ccc(Cl)c4F)c[n+]3[O-])nc2c1 [Example 11] | 146 nM | – | – | –
9 | [O-][n+]1cc(-c2cc(Cl)ccc2-n2cnnn2)ccc1C(Cc1ccccc1)c1nc2cc(F)ccc2[nH]1 (racemic) [Example 7, 5-(5-chloro-2-(1H-tetrazol-1-yl)phenyl)-2-(1-(5-fluoro-1H-benzo[d]imidazol-2-yl)-2-phenylethyl)pyridine 1-oxide] | 1.15 nM | 186 nM | – | –
10 | O=C(O)c1ccc2[nH]c([C@@H](Cc3ccccc3)c3ccc(-c4cc(Cl)ccc4-n4cnnn4)c[n+]3[O-])nc2c1 [Example 5, (S)-2-(1-(5-Carboxy-1H-benzo[d]imidazol-2-yl)-2-phenylethyl)-5-(5-chloro-2-(1H-tetrazol-1-yl)phenyl)pyridine 1-oxide] | 3.41 nM | 216 nM | – | –
11 | [O-][n+]1cc(-c2c(F)ccc(Cl)c2F)ccc1C(Cc1ccccc1)c1nc2cc(F)ccc2[nH]1 (racemic) [Example 10] | 1250 nM | – | – | –

Further lines, results first:

Row | IC50 (human Factor XIa; Examples 1-19 table) | IC50 (Human plasma kallikrein; Examples 1-19 table) | IC50 (human Factor XIa; Examples 20-28 table) | IC50 (Human plasma kallikrein; Examples 20-28 table) | Compound
12 | 89.7 nM | 809 nM | – | – | [O-][n+]1cc(-c2cc(Cl)ccc2-n2cnnn2)ccc1[C@H](Cc1ccc(F)cc1)c1nc2cc(F)ccc2[nH]1 [Example 14]
13 | – | – | 54 nM | 2740 nM | O=C(O)c1ccc2[nH]c(C(Cc3ccccc3)c3ccc(-c4cc(Cl)ccc4C(=O)O)c[n+]3[O-])nc2c1 (racemic) [Example 25]
14 | 4.7 nM | 245 nM | – | – | [O-][n+]1cc(-c2cc(Cl)ccc2-n2cnnn2)ccc1[C@@H](Cc1ccc(F)cc1)c1nc2cc(F)ccc2[nH]1 [Example 15]
15 | 1880 nM | – | – | – | N#Cc1ccc2[nH]c(C(Cc3ccccc3)c3ccc(-c4c(F)ccc(Cl)c4F)c[n+]3[O-])nc2c1 (racemic) [Example 13]
16 | 38.2 nM | 335 nM | – | – | N#Cc1ccc(Cl)cc1-c1ccc(C(Cc2ccccc2)c2nc3cc(C(=O)O)ccc3[nH]2)[n+]([O-])c1 (racemic) [Example 17]
17 | 1.33 nM | 151 nM | – | – | N#Cc1ccc2[nH]c(C(Cc3ccccc3)c3ccc(-c4cc(Cl)ccc4-n4cnnn4)c[n+]3[O-])nc2c1 (racemic) [Example 16]
18 | – | – | 154 nM | – | NC(=O)c1ccc(Cl)cc1-c1ccc([C@@H](Cc2ccccc2)c2nc3cc(F)ccc3[nH]2)[n+]([O-])c1 [Example 22, (R)-5-(2-carbamoyl-5-chlorophenyl)-2-(1-(5-fluoro-1H-benzo[d]imidazol-2-yl)-2-phenylethyl)pyridine 1-oxide]
19 | 160 nM | – | – | – | O=C(O)c1ccc2[nH]c([C@H](Cc3ccc(F)cc3)c3ccc(-c4c(F)ccc(Cl)c4F)c[n+]3[O-])nc2c1 [Example 12]
20 | – | – | 11.8 nM | 169 nM | [O-][n+]1cc(-c2c(-n3cnnn3)ccc(Cl)c2F)ccc1[C@H](Cc1ccccc1)c1nc2cc(F)ccc2[nH]1 [Example 21, 2-[(1S)-1-{5-[3-chloro-2-fluoro-6-(1H-tetrazol-1-yl)phenyl]-1-oxidopyridin-2-yl}-2-phenylethyl]-5-fluoro-1H-benzimidazole]
21 | – | – | 1.82 nM | 64.8 nM | [O-][n+]1cc(-c2c(-n3cnnn3)ccc(Cl)c2F)ccc1[C@@H](Cc1ccccc1)c1nc2cc(F)ccc2[nH]1 [Example 20, 2-[(1R)-1-{5-[3-chloro-2-fluoro-6-(1H-tetrazol-1-yl)phenyl]-1-oxidopyridin-2-yl}-2-phenylethyl]-5-fluoro-1H-benzimidazole]
22 | – | – | 93.7 nM | 1810 nM | O=C(CC(c1nc2ccc(F)cc2[nH]1)c1ccc(-c2cc(Cl)ccc2-n2cnnn2)c[n+]1[O-])N1CCC1 (single isomer, unassigned) [Example 28]
23 | – | – | 7930 nM | – | O=C(O)c1ccc2nc(C(CC(=O)N3CCC3)c3ccc(-c4c(F)ccc(Cl)c4F)c[n+]3[O-])[nH]c2c1 (racemic) [Example 26]
24 | – | – | 14.2 nM | – | O=C(O)c1ccc2nc(C(CC3CC3)c3ccc(-c4cc(Cl)ccc4-n4cnnn4)c[n+]3[O-])[nH]c2c1 (racemic) [Example 24, 2-(1-(5-carboxy-1H-benzo[d]imidazol-2-yl)-2-cyclopropylethyl)-5-(5-chloro-2-(1H-tetrazol-1-yl)phenyl)pyridine 1-oxide]
25 | – | – | 1000 nM | – | NC(=O)c1ccc(Cl)cc1-c1ccc([C@H](Cc2ccccc2)c2nc3cc(F)ccc3[nH]2)[n+]([O-])c1 [Example 23, (S)-5-(2-carbamoyl-5-chlorophenyl)-2-(1-(5-fluoro-1H-benzo[d]imidazol-2-yl)-2-phenylethyl)pyridine 1-oxide]
26 | – | – | 79.1 nM | – | O=C(CC(c1nc2ccc(F)cc2[nH]1)c1ccc(-c2cc(Cl)ccc2-n2cnnn2)c[n+]1[O-])N1CCC1 (single isomer, unassigned) [Example 27]
